{
  "source": "patent US20180333399A1",
  "about": "“METHOD OF IMPROVING LIVER FUNCTION” (NAIA METABOLIC, INC., priority 2012, published 2018)",
  "key": {"type 2 diabetes patients": {"system": "type 2 diabetes patients", "test": "24 week randomised, placebo-controlled double-blind clinical trial: blood ALT levels", "format": "in vivo, human", "settings": "for ΔALT Week 12, Mean ± SD / ΔALT Week 12, Median (range): change from baseline (Day 0) to Week 12; for ΔALT Week 12, Mean ± SD / ΔALT Week 12, Median (range) / ΔALT Week 24, Mean ± SD / ΔALT Week 24, Median (range): 40 mg b.i.d.; for ΔALT Week 24, Mean ± SD / ΔALT Week 24, Median (range): change from baseline (Day 0) to Week 24; for ΔALT Week 12, MTZ-Placebo / ΔALT Week 24, MTZ-Placebo: difference of mean ΔALT versus matching placebo group", "description": "The primary efficacy endpoint for the clinical trial was a reduction in HbA1c (ΔHbA1c) from baseline with methazolamide, relative to placebo, after 24 weeks of treatment. The primary safety measurement was the effect of methazolamide, compared to placebo, on venous blood gas parameters; a measure of acidosis. The clinical trial initially enrolled type 2 diabetes patients who were not treated with any anti-diabetic agent prior to entry into the trial. […] The metformin dose was not altered throughout the trial. Participant baseline demographic data are provided in Table 1-1, Participants randomized into the clinical trial were administered either daily doses of methazolamide (40 mg b.i.d.) or placebo for 24 weeks. Methazolamide was taken as 1×30 mg capsule and 1×10 mg capsule per dose at breakfast and dinner. Placebo (microcrystalline cellulose) was administered in identical presentation. […] Mean ALT levels over time are depicted in FIGS. 1(A) and 1(B)."}, "db/db mice [1]": {"system": "db/db mice", "test": "Fasting blood glucose in db/db mice, 9 days oral gavage", "format": "in vivo", "method": "(§1) All reagents were purchased from Sigma-Aldrich (Australia). Dosing solutions of methazolamide were prepared fresh daily in sterile saline:PEG400 at 65:35 (v/v), protected from light and stored at room temperature. Male db/db mice (Animal Resource Centre, Australia) were housed with free access to water and food (standard rodent diet: Barastoc Rat & Mouse, Ridley Agriproducts, Australia). Room temperature was maintained at 21±2° C., humidity 40-70%, with a 12 h light/dark cycle. Mice were treated with methazolamide (50 mg/kg/day) or vehicle (n=4 per group) by single oral gavage doses each day for 9 days.\n(§2) Daily blood samples were obtained from the tail tip of each mouse and glucose levels measured using a glucometer (AccuCheck II; Roche, Australia). At the end of the study, the animals were humanely killed and a portion of liver tissue (left lobe) was removed and fixed in 10% neutral-buffered formalin. The liver tissue was paraffin-embedded, sectioned (5 μm), mounted and stained with hematoxylin and eosin."}, "db/db mice [2]": {"system": "db/db mice", "test": "Hepatic lipid content (modified Folch extraction) in db/db mice", "format": "in vivo", "method": "as §1\nA separate portion of the liver (right lobe) was used to measure hepatic lipid content. Lipid was extracted using a modified Folch protocol. The tissue was homogenised in 2:1 chloroform/methanol solution (10 ml), and filtered into a […] glass centrifuge tube. An additional 5 ml of 2:1 chloroform/methanol solution was added, followed by 2.5 ml of 0.9% NaCl. After thorough mixing, the extract was centrifuged for 5 min at 2,000 g at 10° C. After discarding the aqueous layer, the organic layer was dried under nitrogen, and total lipid content was assessed by weighing."}, "db/db mice [3]": {"system": "db/db mice", "test": "Liver histology (hematoxylin and eosin) in db/db mice", "format": "in vivo", "settings": "after 9 days, 50 mg/kg/day; 3 of the 4 vehicle-treated animals had a high degree of hepatic steatosis", "method": "as §1, §2"}, "[4]": {"settings": "Week 12, methazolamide 40 mg b.i.d., listed as All MTZ (Alone + Met)"}, "[5]": {"settings": "methazolamide 40 mg b.i.d., listed as All MTZ (Alone + Met)"}, "[6]": {"settings": "methazolamide 40 mg b.i.d., listed as MTZ Alone"}, "[7]": {"settings": "baseline (Day 0), before treatment, type 2 diabetes patients, listed as MTZ Alone"}, "[8]": {"settings": "listed as All MTZ (Alone + Met)"}},
  "note": "Marks after values point to notes of the source that are not given here.",
  "data": [
    {"smiles": "CC(=O)/N=c1/sc(S(N)(=O)=O)nn1C", "note": "[methazolamide]", "values": [
      {"measurement": "ALT Week 12, Mean ± SD", "setting": "type 2 diabetes patients; [4]", "result": "20.9 ± 9.8", "unit": "U/L"},
      {"measurement": "ALT Week 12, Median (range)", "setting": "type 2 diabetes patients; [4]", "result": "19 (8-50) U/L"},
      {"measurement": "ALT Week 12, Mean ± SD", "setting": "type 2 diabetes patients; Week 12, methazolamide 40 mg b.i.d., listed as MTZ Alone", "result": "22.1 ± 10.1", "unit": "U/L"},
      {"measurement": "ALT Week 24, Mean ± SD", "setting": "type 2 diabetes patients; [5]", "result": "21.3 ± 12.3", "unit": "U/L"},
      {"measurement": "ALT Week 24, Median (range)", "setting": "type 2 diabetes patients; [5]", "result": "20 (7-64) U/L"},
      {"measurement": "ALT Week 24, Mean ± SD", "setting": "type 2 diabetes patients; [6]", "result": "22.0 ± 12.6", "unit": "U/L"},
      {"measurement": "ALT Week 24, Median (range)", "setting": "type 2 diabetes patients; [6]", "result": "17 (9-49) U/L"},
      {"measurement": "ALT Day 0, Median (range)", "setting": "type 2 diabetes patients; baseline (Day 0), before treatment, type 2 diabetes patients, listed as All MTZ (Alone + Met)", "result": "27.5 (16-83) U/L"},
      {"measurement": "ALT Day 0, Mean ± SD", "setting": "type 2 diabetes patients; [7]", "result": "33.1 ± 16.9", "unit": "U/L"},
      {"measurement": "ALT Day 0, Median (range)", "setting": "type 2 diabetes patients; [7]", "result": "29 (16-83) U/L"},
      {"measurement": "ΔALT Week 12, Mean ± SD", "setting": "type 2 diabetes patients; [8]", "result": "−10.9 ± 7.7"},
      {"measurement": "ΔALT Week 12, Median (range)", "setting": "type 2 diabetes patients; [8]", "result": "−9 (−40, −2)"},
      {"measurement": "ΔALT Week 12, Mean ± SD", "setting": "type 2 diabetes patients; listed as MTZ Alone", "result": "−10.4 ± 9.3"},
      {"measurement": "ΔALT Week 12, Median (range)", "setting": "type 2 diabetes patients; listed as MTZ Alone", "result": "−8.5 (−40, −4)"},
      {"measurement": "ΔALT Week 24, Mean ± SD", "setting": "type 2 diabetes patients; [8]", "result": "−10.7 ± 8.2"},
      {"measurement": "ΔALT Week 24, Median (range)", "setting": "type 2 diabetes patients; [8]", "result": "−8.5 (−34, +4)"},
      {"measurement": "ΔALT Week 24, Mean ± SD", "setting": "type 2 diabetes patients; listed as MTZ Alone", "result": "−11.0 ± 8.1"},
      {"measurement": "ΔALT Week 24, Median (range)", "setting": "type 2 diabetes patients; listed as MTZ Alone", "result": "−8 (−34, −3)"},
      {"measurement": "ΔALT Week 12, MTZ-Placebo", "setting": "type 2 diabetes patients; Week 12, listed as All MTZ (Alone + Met)", "result": "−14.8*^§"},
      {"measurement": "ΔALT Week 12, MTZ-Placebo", "setting": "type 2 diabetes patients; Week 12, listed as MTZ Alone", "result": "−18.1"},
      {"measurement": "ΔALT Week 24, MTZ-Placebo", "setting": "type 2 diabetes patients; [8]", "result": "−9.3^†§"},
      {"measurement": "ΔALT Week 24, MTZ-Placebo", "setting": "type 2 diabetes patients; listed as MTZ Alone", "result": "−8.0"},
      {"measurement": "time of treatment after which reduction in blood ALT levels was evident", "setting": "type 2 diabetes patients; patients treated with methazolamide", "result": 1, "unit": "week"},
      {"measurement": "time of treatment after which reduced ALT level reached a plateau", "setting": "type 2 diabetes patients; plateau maintained for the remainder of the 24 week treatment period", "result": 2, "unit": "weeks"},
      {"measurement": "Fasting Blood Glucose, Day 0", "setting": "db/db mice [1]; Day 0 (baseline), male db/db mice, n=4", "result": "26.0 ± 1.2", "unit": "mM"},
      {"measurement": "Fasting Blood Glucose, Day 9", "setting": "db/db mice [1]; Day 9, 50 mg/kg/day oral gavage, p < 0.05 vs Day 0", "result": "13.7 ± 2.4", "unit": "mM"},
      {"measurement": "reduction of fasting blood glucose levels relative to vehicle treated-controls", "setting": "db/db mice [1]; db/db mice, 50 mg/kg/day, 9 days", "result": 47, "unit": "%"},
      {"measurement": "Liver lipid content (% of liver weight), Day 9", "setting": "db/db mice [2]; Day 9, 50 mg/kg/day oral gavage, p < 0.05 vs vehicle", "result": "7.4 ± 1.2", "unit": "%"},
      {"measurement": "liver lipid content (w/w) lower compared to vehicle treated controls", "setting": "db/db mice [2]; after 9 days of treatment, db/db mice", "result": 48, "unit": "%"},
      {"measurement": "treated db/db mice that appeared to have greatly reduced hepatic steatosis (liver histology)", "setting": "db/db mice [3]", "result": "2 of the 4"}
    ]}
  ]
}
